Experiments:
human PPARγ2 = molecular target: T1, human PPARγ2 (Homo sapiens, UniProt P37231); test: PPARγ activation activity, Gal4-PPARγ2 LBD luciferase transfection assay using COS7 cells; format: cell-based; conditions: Gal4-human PPARγ2 LBD chimera, 16 hours, rosiglitazone = 100%
T1 construct: the amino acids 182 to 505 of human PPARγ2; expressed in transfected cells; host or cells: COS7 cells (African green monkey kidney)
T1 sequence (P37231 182-505): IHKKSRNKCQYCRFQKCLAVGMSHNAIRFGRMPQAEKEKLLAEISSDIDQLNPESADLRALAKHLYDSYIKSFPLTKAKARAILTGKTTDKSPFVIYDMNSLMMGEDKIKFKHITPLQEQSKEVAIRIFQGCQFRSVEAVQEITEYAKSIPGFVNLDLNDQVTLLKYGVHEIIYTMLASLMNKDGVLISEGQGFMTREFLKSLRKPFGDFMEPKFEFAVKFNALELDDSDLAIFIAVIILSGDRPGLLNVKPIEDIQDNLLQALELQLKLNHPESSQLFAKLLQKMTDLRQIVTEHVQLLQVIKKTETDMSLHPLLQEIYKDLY
Procedure: The agonistic activity of the compounds of the invention on PPARγ was measured based on the transfection assay using COS7 cells (DS Pharma Biomedical Co., Ltd., Osaka, Japan), which are the cell line derived from the kidney of the African green monkey. COS7 cells were cultured under 5% CO2 concentration, and DMEM medium containing 10% fetal bovine serum, glutamic acid, and antibiotics was used as a medium.
As an expression vector, a chimera in which DNA binding domain of Gal4, which is a yeast transcription factor, and ligand binding domain of human PPARγ2 are fused, i.e., a fused product between the amino acids 1 to 147 of Gal4 transcription factor and the amino acids 182 to 505 of human PPARγ2, was used. Furthermore, as a reporter vector, a firefly luciferase containing five copies of Gal4 recognition sequence in the promoter region was used. Plasmid transfection to the cells was performed according to a method which uses jetPEI (trade name, manufactured by Funakoshi Co., Ltd., Tokyo, Japan). Furthermore, β-galactosidase expression vector was employed as an internal standard.
After the transfection of the cells, the medium was replaced with a DMEM medium (containing 1% serum) added with the test compound, and the cells were further cultured for 16 hours. After that, the luciferase activity and β-galactosidase activity in the cell lysis solution were measured.
For the present test, dimethyl sulfoxide (DMSO) was used for dissolution and dilution of the test compounds, and during the cell treatment, the DMSO concentration in DMEM medium (containing 1% serum) was adjusted to 0.1%. As a positive compound, rosiglitazone (trade name, manufactured by ALEXIS Corporation, Switzerland) was used. The luciferase activity (%) of the test compounds (1 to 30 μmol/L) was calculated when the luciferase activity of rosiglitazone (3 to 10 μmol/L) is 100% and the luciferase activity in the absence of the test compound is 0%. The 50% effective concentration of the test compound (EC50, 50% effect concentration) was calculated by using SAS Preclinical Package Ver 5.0 (trade name, manufactured by SAS institute Japan Co., Tokyo, Japan), which is a statistical analysis program.
EC50 values of these compounds are described in Table 2. […] Under the same condition, the PPARγ activation activity of telmisartan, i.e., EC50, was 1 to 5 μM.

[1] = tested on: spontaneously hypertensive rats (SHR); test: Hypotensive activity with tail cuff method in spontaneously hypertensive rats; format: in vivo, rat; conditions: 3 and 10 mg/kg orally once a day for 7 days, 4, 24 and 72 hours after final administration, FIG. 1
Procedure: By using 19-week old spontaneously hypertensive rats (SHR), the body weight and the systolic blood pressure (SBP) of each rat were measured before administration of the medicine, and group separation was performed by blocking assignment so that there was no variation of these values between respective groups. Solvent control (0.5% methyl cellulose solution, MC), 3 mg/kg telmisartan, 3 and 10 mg/kg of the compound of Example 21, and 3 and 10 mg/kg of the compound of Example 23 were orally administered iteratively for 7 days, once a day. The blood pressure and the heart beat rate were measured with tail cuff method at 4, 24, and 72 hours after the administration of the final administration day. Specifically, the rat was put into a cylindrical positioner, maintained at 37° C., and the blood pressure and the heart beat rate were measured from the tail of the rat during the resting state using a non-invasive blood pressure meter (trade name: BP-98A, manufactured by Softron Co., Ltd., Tokyo, Japan). The blood pressure and the heart beat rate were measured for each individual three times or more in a row. When the difference of the systolic blood pressures between the consecutive measurement values was 5 mmHg or less, the average values of these measurement values were taken as data, except for the first measurement. […]

[2] = tested on: Zucker diabetic fatty (ZDF) rats; test: Activity for diabetic nephropathy in Zucker diabetic fatty rats; format: in vivo, rat; conditions: 3 mg/kg once a day for 15 weeks; for elimination amount of urinary total protein per 18 hours: FIG. 4; for plasma triglyceride concentration: FIG. 5; for plasma total cholesterol concentration: FIG. 6; for renal protecting activity (diabetic nephropathy): overall conclusion
Procedure: By using 8-week old Zucker diabetic fatty (ZDF) rats, the body weight, the elimination amount of urinary total protein (UTP), the plasma triglyceride concentration (TG), and the plasma total cholesterol concentration (TC) of each rat were measured before administration of the medicine, and group separation was performed by blocking assignment so that there was no variation of these values between respective groups. Solvent control (0.5% MC), 3 mg/kg telmisartan, 3 mg/kg of the compound of Example 21, and 3 mg/kg of the compound of Example 23 were administered iteratively for 15 weeks once a day. UTP, TG, and TC were measured according to a general method during the administration period at 4, 8, 12, and 15 weeks after the administration.
Vehicle, Telmisartan, Compound 23, and Compound 21 in FIGS. 4, 5, and 6 represent solvent control, telmisartan, the compound of Example 23, and the compound of Example 21, respectively. The horizontal axis of FIG. 4-1 represents time (weeks after administration), and the vertical axis represents the elimination amount of urinary total protein per 18 hours. The data in FIG. 4-1 represents average values of each individual in each point, wherein -●- represents Vehicle (solvent control), -♦- represents Telmisartan, -▪- represents Compound 23 (the compound of Example 23), and -▴- represents Compound 21 (the compound of Example 21). The vertical axis of FIG. 4-2 represents the elimination amount of urinary total protein per 18 hours. The data in FIG. 4-2 represents individual values and average values of each individual +standard deviation.
The vertical axis of FIG. 5 represents the plasma triglyceride concentration. The data in FIG. 5 represents individual values and average values of each individual.
The vertical axis of FIG. 6 represents the plasma total cholesterol concentration. The data in FIG. 6 represents individual values and average values of each individual.
Furthermore, it was believed that one reason for the potent activity may be related to improving activity of lipid metabolism, and it is believed that the potent activity is attributed to activities other than the angiotensin receptor antagonistic activity.

Compound | EC50 (human PPARγ2) [nM] | blood pressure lowering activity (change in systolic blood pressure from pre-administration) [1] | elimination amount of urinary total protein per 18 hours [2] | plasma triglyceride concentration [2] | plasma total cholesterol concentration [2] | renal protecting activity (diabetic nephropathy) [2]
CCCCc1nc(C(C)C)n(-c2ncc(OCC)cn2)c(=O)c1Cc1ccc(-c2ccccc2-c2noc(=O)[nH]2)nc1 [Example 21, 3-{2-{5-{[4-butyl-1-(5-ethoxypyrimidin-2-yl)-2-isopropyl-6-oxo-1,6-dihydropyrimidin-5-yl]methyl}pyridin-2-yl}phenyl}-1,2,4-oxadiazol-5(4H)-one] | 450 | potent blood pressure lowering activity dose-dependently that was equivalent or more to telmisartan | remarkably inhibited increase of the elimination amount of urinary total protein, and their activity was more potent than that of telmisartan | remarkably lowered the plasma triglyceride concentration | remarkably lowered the plasma total cholesterol concentration, and such activity was more potent than that of telmisartan | potent renal protecting activity
CCCCc1nc(C2CC2)n(-c2ncc(OCC)cn2)c(=O)c1Cc1ccc(-c2ccccc2-c2noc(=O)[nH]2)nc1 [Example 23, 3-{2-{5-{[4-butyl-2-cyclopropyl-1-(5-ethoxypyrimidin-2-yl)-6-oxo-1,6-dihydropyrimidin-5-yl]methyl}pyridin-2-yl}phenyl}-1,2,4-oxadiazol-5(4H)-one] | 760 | potent blood pressure lowering activity dose-dependently that was equivalent or more to telmisartan | remarkably inhibited increase of the elimination amount of urinary total protein, and their activity was more potent than that of telmisartan | remarkably lowered the plasma triglyceride concentration | remarkably lowered the plasma total cholesterol concentration, and such activity was more potent than that of telmisartan | potent renal protecting activity

— US8778954B2, “Phenylpyridine derivative and medicinal agent comprising same” (Kowa Company, Ltd., priority 2009, dated 2014)
